Measurements taken from BigSolDB 2.1.

O=C(O)c1ccccc1O
solubility (mole fraction)
Settings	243.15 K	248.15 K	253.15 K	258.15 K	263.15 K	268.15 K	273.15 K	278.15 K	283.15 K
in acetone	–	–	0.0913	0.0978	0.108	0.114	0.122	0.138	0.143
in acetonitrile	0.0052	0.0061	0.0071	0.0084	0.01	0.012	0.0141	0.0159	0.0185
in ethyl acetate	–	–	0.0554	0.0651	0.075	0.086	0.09	0.099	0.107
in methanol	–	–	0.0605	0.065	0.0699	0.075	0.083	0.09	0.1

NC(=O)c1ccccc1O
solubility (mole fraction)
Settings	243.15 K	248.15 K	253.15 K	258.15 K	263.15 K	268.15 K	273.15 K	278.15 K	283.15 K
in acetone	–	–	0.0592	0.0639	0.0703	0.077	0.0839	0.0911	0.0986
in acetonitrile	0.005	0.006	0.0071	0.0087	0.0108	0.012	0.0143	0.017	0.0199
in ethyl acetate	–	–	0.0305	0.0335	0.0374	0.0406	0.0446	0.0497	0.0547
in methanol	–	–	0.012	0.0136	0.0157	0.0181	0.0204	0.0233	0.0266
